Tested on: Human bone marrow CD34+ cells
Assay: Megakaryocyte colony stimulating activity (megakaryocyte colony forming method)
Format: cell-based
Details: 11 days
Protocol: The action of the compounds of Synthetic Examples 1 to 43 of the present invention and Reference Synthetic Examples 29 and 30 on the proliferation, differentiation and maturation of megakaryocyte cells was measured by the megakaryocyte colony forming method using human bone marrow cells. Human bone marrow CD34^+ cells (Cambrex Bio Science Walkersville) were incubated on 2-well chamber slide for 11 days in a CO2 incubator (5% CO2, 37° C.) using MegaCult™-C (StemCell Technologies) containing 0.1% (v/v) of the compounds of Synthetic Examples dissolved in dimethyl sulfoxide. After dehydration and fixation, the cells were stained with an anti-glycoprotein IIb/IIIa antibody in accordance with the instruction by the manufacturer. The colonies consisting of at least 8 stained megakaryocyte cells in each well were counted under a microscope. The megakaryocyte colony counts in at least 2 wells were averaged.

Row | Compound | Megakaryocyte colony count (drug concentration 1 μg/mL) | Megakaryocyte colony count (drug concentration 0.1 μg/mL)
1 | CC(=NNC(=O)c1ccc(C(=O)N(C)C)s1)c1csc(-c2ccc(Cl)c(Cl)c2)c1O.[K] [Synthetic Ex. 5, 5-{1-[5-(3,4-dichlorophenyl)-4-hydroxythiophen-3-yl]ethylidenehydrazinocarbonyl}thiophene-2-carboxylic acid dimethylamide potassium salt] | 274 | 
2 | CC(=NNC(=O)c1ccc(C(=O)N2CCCC2)s1)c1csc(-c2ccc(C(F)(F)F)cc2)c1O.[K] [Synthetic Ex. 10, 5-(pyrrolidine-1-carbonyl)thiophene-2-carboxylic acid {1-[5-(4-trifluoromethylphenyl)-4-hydroxythiophen-3-yl]ethylidene}hydrazide potassium salt] | 208 | 105
3 | CC(=NNC(=O)c1ccc(C(=O)NCc2ccccn2)s1)c1csc(-c2ccc(Cl)c(Cl)c2)c1O [Synthetic Ex. 29, 5-{1-[5-(3,4-dichlorophenyl)-4-hydroxythiophen-3-yl]ethylidenehydrazinocarbonyl}thiophene-2-carboxylic acid 2-picolylamide] |  | 62
4 | CCN(CC)C(=O)c1ccc(C(=O)NN=C(C)c2csc(-c3ccc(C(F)(F)F)cc3)c2O)s1 [Synthetic Ex. 8, 5-{1-[5-(4-trifluoromethylphenyl)-4-hydroxythiophen-3-yl]ethylidenehydrazinocarbonyl}thiophene-2-carboxylic acid diethylamide] | 227 | 147
5 | CC(=NNC(=O)c1ccc(C(=O)NCc2ccno2)s1)c1csc(-c2ccc(Cl)c(Cl)c2)c1O [Synthetic Ex. 35, 5-{1-[5-(3,4-dichlorophenyl)-4-hydroxythiophen-3-yl]ethylidenehydrazinocarbonyl}thiophene-2-carboxylic acid (isoxazol-5-ylmethyl)amide] | 153 | 135
6 | CC(=NNC(=O)c1ccc(C(=O)N(C)Cc2ccccn2)s1)c1csc(-c2ccc(C(F)(F)F)cc2)c1O.[K] [Synthetic Ex. 13, 5-{1-[5-(4-trifluoromethylphenyl)-4-hydroxythiophen-3-yl]ethylidenehydrazinocarbonyl}thiophene-2-carboxylic acid methyl-2-picolylamide potassium salt] |  | 61
7 | CC(=NNC(=O)c1ccc(C(=O)NCc2ccncc2)s1)c1csc(-c2ccc(Cl)c(Cl)c2)c1O [Synthetic Ex. 30, 5-{1-[5-(3,4-dichlorophenyl)-4-hydroxythiophen-3-yl]ethylidenehydrazinocarbonyl}thiophene-2-carboxylic acid 4-picolylamide] | 271 | 145
8 | COCCNC(=O)c1ccc(C(=O)NN=C(C)c2csc(-c3ccc(Cl)c(Cl)c3)c2O)s1.[K] [Synthetic Ex. 6, 5-{1-[5-(3,4-dichlorophenyl)-4-hydroxythiophen-3-yl]ethylidenehydrazinocarbonyl}thiophene-2-carboxylic acid 2-methoxyethylamide potassium salt] | 151 | 115
9 | CC(=NNC(=O)c1ccc(C(=O)N2CCN(C(C)C)CC2)s1)c1csc(-c2ccc(Cl)c(Cl)c2)c1O [Synthetic Ex. 1, 5-(4-isopropylpiperazine-1-carbonyl)thiophene-2-carboxylic acid {1-[5-(3,4-dichlorophenyl)-4-hydroxythiophen-3-yl]ethylidene}hydrazide] | 154 | 
10 | CC(=NNC(=O)c1ccc(C(=O)NCCc2ccncc2)s1)c1csc(-c2ccc(Cl)c(Cl)c2)c1O [Synthetic Ex. 31, 5-{1-[5-(3,4-dichlorophenyl)-4-hydroxythiophen-3-yl]ethylidenehydrazinocarbonyl}thiophene-2-carboxylic acid 2-(pyridin-4-yl)ethylamide] | 136 | 70
